Reference: article PMC12154458, “High-Throughput Screens of Repurposing Hub and DOS Chemical Libraries Reveal Compounds with Novel and Potent Inhibitory Activity Against the Essential Non-Neuronal Acetylcholinesterase of Schistosoma mansoni (SmTAChE)” (International Journal of Molecular Sciences, 2025)
Like-named read-outs stand apart in the source and are kept apart here.

Assays:
[1] = molecular target: recombinant human acetylcholinesterase, rHsAChE (Homo sapiens, UniProt P22303); assay: biochemical
rSmTAChE [2] = molecular target: T1, rSmTAChE (Schistosoma mansoni, UniProt A0A3Q0KMM5); format: biochemical;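 as to Inhibition (%) (Average): mostly 20 µM final but a few compounds at 5 or 10 µM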;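 as to Inhibition (%) Replicate A: mostly 20 µM final but a few compounds at 5 or 10 µM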;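 as to Inhibition (%) Replicate B: mostly 20 µM final but a few compounds at 5 or 10 µM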
rSmTAChE [3] = molecular target: T1, rSmTAChE; assay: biochemical
[4] = Table 3, read-out: IC50 (µM) rHsAChE
[5] = dose response analysis of Drug Repurposing Hub hits against rHsAChE
[6] = read-out: rSmTAChE HTS Inhibition (Ave, %)
[7] = read-out: HTS/rSmTAChE Inhibition (Ave, %)

recombinant human acetylcholinesterase, rHsAChE, sequence (P22303 32-614): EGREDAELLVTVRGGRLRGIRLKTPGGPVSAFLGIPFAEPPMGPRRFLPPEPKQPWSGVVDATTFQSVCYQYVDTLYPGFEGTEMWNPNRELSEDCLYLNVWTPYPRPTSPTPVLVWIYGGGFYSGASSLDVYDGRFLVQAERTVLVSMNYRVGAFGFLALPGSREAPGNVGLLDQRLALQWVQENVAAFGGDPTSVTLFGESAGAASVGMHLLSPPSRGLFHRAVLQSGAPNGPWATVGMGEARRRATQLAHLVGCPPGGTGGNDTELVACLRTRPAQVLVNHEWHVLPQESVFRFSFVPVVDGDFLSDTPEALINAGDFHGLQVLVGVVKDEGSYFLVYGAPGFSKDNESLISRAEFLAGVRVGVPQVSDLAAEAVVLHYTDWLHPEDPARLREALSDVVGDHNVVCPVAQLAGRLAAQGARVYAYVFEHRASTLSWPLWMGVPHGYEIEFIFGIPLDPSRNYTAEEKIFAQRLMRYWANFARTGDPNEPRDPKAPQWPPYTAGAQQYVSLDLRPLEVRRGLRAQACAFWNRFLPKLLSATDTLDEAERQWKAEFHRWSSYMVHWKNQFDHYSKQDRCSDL
T1 sequence (A0A3Q0KMM5 27-661 limits assumed): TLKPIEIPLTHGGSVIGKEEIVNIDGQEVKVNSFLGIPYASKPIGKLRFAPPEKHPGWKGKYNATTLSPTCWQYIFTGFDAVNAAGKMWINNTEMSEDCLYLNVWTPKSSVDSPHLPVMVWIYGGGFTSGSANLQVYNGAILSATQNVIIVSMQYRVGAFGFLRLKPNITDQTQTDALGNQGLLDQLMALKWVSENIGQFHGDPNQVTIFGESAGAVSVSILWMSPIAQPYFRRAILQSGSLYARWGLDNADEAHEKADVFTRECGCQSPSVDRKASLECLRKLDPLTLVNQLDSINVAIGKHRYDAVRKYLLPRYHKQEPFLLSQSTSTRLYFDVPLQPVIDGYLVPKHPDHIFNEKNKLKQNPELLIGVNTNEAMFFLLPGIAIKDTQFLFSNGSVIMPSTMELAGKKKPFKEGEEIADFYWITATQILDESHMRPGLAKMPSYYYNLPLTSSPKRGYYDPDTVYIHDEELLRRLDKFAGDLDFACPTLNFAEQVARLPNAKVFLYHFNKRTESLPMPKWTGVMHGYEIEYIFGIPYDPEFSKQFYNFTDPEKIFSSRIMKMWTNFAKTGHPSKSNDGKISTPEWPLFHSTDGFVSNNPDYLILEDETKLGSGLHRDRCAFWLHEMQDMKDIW

Compound | SI (Sm/Hs) [1] | Data Mode (curve class), rHsAChE [1, 5] | Data Mode (curve class), rSmTAChE (rSmTAChE [2]) | inhibition at 20 µM (rSmTAChE [3]; [6]) [%] | Data Mode (curve class), rHsAChE [1] | IC50 ([1]; IC50 (µM) rHsAChE) [µM] | SI (Hs/Sm) (rSmTAChE [2]) | IC50 ([1]; read-out: IC50 (µM) rHsAChE) [µM] | Inhibition (%) Replicate A (rSmTAChE [3]) [%] | Inhibition (%) Replicate B (rSmTAChE [3]) [%] | IC50 (rSmTAChE [2]; read-out: IC50 (µM) rSmTAChE) [µM] | other results
CC1(COc2ccc3c(c2)ncn3-c2ccc3cccc(N4CCC(N)CC4)c3n2)COC1 [Crenolanib, reference compound] | 1.97 | decreasing | decreasing (weakly active) | 64.5 |  |  |  |  |  |  |  | IC50 [1, 4]: 9.91 µM
CN(CCCCCCCCCCN(C)C(=O)Oc1cccc([N+](C)(C)C)c1)C(=O)Oc1cccc([N+](C)(C)C)c1 [Demecarium bromide, reference compound] |  |  | decreasing | 65.3 | decreasing | 0.02 |  |  |  |  |  | IC50 ([1]; qAC50 (IC50), rHsAChE): 0.0225 µM
CCCCCCCCCCCC1=C(O)C(=O)C=C(O)C1=O [Embelin, reference compound] |  | decreasing | decreasing |  |  | 1.8 | 1.44 |  |  |  |  | fold greater potency/selectivity for SmTAChE vs. HsAChE (Selectivity Index) (rSmTAChE [2]): 1.4 fold; inhibition at 10 µM (rSmTAChE [3]; [7]): 88.7%
Brc1cc2c(cc1[C@@H]1Nc3ccccc3[C@@H]3C=CC[C@@H]31)OCO2 [G15, reference compound] | 2.81 |  | decreasing (weakly active) |  | decreasing (weakly active) |  |  | > 13.5 | 75.36 | 80.61 |  | rSmTAChE HTS Inhibition (Ave, %) (rSmTAChE [3]; 20 µM): 77.99%
O=C(O)c1ccc(-c2c[nH]c3ncc(-c4ccccc4)cc23)cc1C1CCCC1 [GSK-650394, reference compound] |  | decreasing | decreasing |  |  | 8.1 | 3.46 |  |  |  |  | IC50 ([1]; qAC50 (IC50), rHsAChE): 8.09 µM; inhibition at 10 µM (rSmTAChE [3]; [7]): 75.4%
CC(C)c1onc(-c2c(Cl)cccc2Cl)c1COc1ccc(/C=C/c2cccc(C(=O)O)c2)c(Cl)c1 [GW-4064, reference compound] |  |  | decreasing |  | decreasing |  | 6.00 | 8.83 | 66.57 | 65.41 | 1.47 | Inhibition (%) (Average) (rSmTAChE [3]): 65.99%; HTS/rSmTAChE Inhibition (Ave, %) (rSmTAChE [3]; 20 µM): 66.00%
O=C(O)CNC(=O)c1c(O)c2ccccc2n(Cc2ccccc2)c1=O [IOX2, reference compound] | 2.16 |  | decreasing |  | decreasing |  |  | 7.75 | 61.67 | 70.82 | 16.7 | IC50 (rSmTAChE [2]; read-out: qAC50 (IC50), rSmTAChE): 16.7 µM; rSmTAChE HTS Inhibition (Ave, %) (rSmTAChE [3]; 5 µM): 66.25%
COc1ccc(/C=C/CCCCOc2ccc(C(=O)c3cccc(C(=O)O)c3)cc2CCC(=O)O)cc1 [LY223982, reference compound] | 2.1 |  | decreasing |  | decreasing |  |  | 7.22 | 83.69 | 77.36 | 15.2 | rSmTAChE HTS Inhibition (Ave, %) (rSmTAChE [3]; 20 µM): 80.52%
O=C(Nc1ncc(SCCN2CCCC2)s1)[C@]1(c2ccc(S(=O)(=O)C3CC3)cc2)C[C@H]1C1CCCCC1 [LY2608204, reference compound] | 23.28 |  | decreasing (weakly active) |  | decreasing |  |  | 0.52 | 71.61 | 81.29 | > 12 | rSmTAChE HTS Inhibition (Ave, %) (rSmTAChE [3]; 20 µM): 76.45%
O=C(NC(=O)c1c(F)cccc1F)Nc1cc(Cl)c(OC(F)(F)C(F)C(F)(F)F)cc1Cl (stereo not drawn) [Lufenuron, reference compound] |  |  | decreasing (weakly active) | 92.6 | decreasing | 12 |  |  |  |  |  | IC50 ([1]; qAC50 (IC50), rHsAChE): 12 µM
COc1ccc2cc(-c3cc(-c4cc(Cl)cc(Cl)c4)nn3[C@@H](C)c3ccc(C(=O)NCCC(=O)O)cc3)ccc2c1 [MK-0893, reference compound] |  |  | decreasing |  |  |  |  |  |  |  |  | IC50 (µM) rHsAChE ([1]; Table 1, Inactive = inactive at the maximum tested concentration (40 µM)): Inactive *; inhibition of rHsAChE, result in words ([1]; dose–response, up to 40 µM): no inhibition detected; inhibition at 20 µM (rSmTAChE [3]; [7]): 88.7%
O=C(O)Cn1nnc(-c2cc(N3CCC(Oc4cc(F)ccc4Br)CC3)no2)n1 [MK-8245, reference compound] | 4.71 | decreasing | decreasing | 71.5 |  |  |  |  |  |  |  | IC50 [1, 4]: 7.93 µM
C[C@H](Cc1ccc(O)c(O)c1)[C@@H](C)Cc1ccc(O)c(O)c1 [Masoprocol, reference compound] |  | decreasing (weakly active) | decreasing |  |  |  | 2.32 |  |  |  |  | inhibition at 20 µM (rSmTAChE [3]; [7]): 76.4%
